Experiments:
[1] = tested on: A549 (Human lung cancer cell line); assay: Effect of combination of sulfonamide compound and other antitumor agent (CellTiter-Glo, combination index): A549
[2] = tested on: MV-4-11 (Human blood cancer cell line); assay: Effect of combination of sulfonamide compound and other antitumor agent (CellTiter-Glo, combination index): MV-4-11
Method: Each cell line was seeded at 90 L/well to a 96-well culture plate (Thermo Fisher Scientific, Inc.) according to the above tables. The cell-seeded plate was cultured in an incubator set to 37° C. and 500 CO2. On the day following seeding, varying concentrations of the sulfonamide compound and the other antitumor agent were added in combination to the cells. […] The serial dilutions of each compound, or DW was added at 5μL/well to the plate such that each compound and DW, or the sulfonamide compound and the other antitumor agent were combined. […] The plate after the addition was cultured at 37° C. for 3 days under 5% CO2 conditions.
Three days later, CellTiter-Glo(R) 2.0 Reagent (Promega Corporation) was added at 100 μL/well, and the amount of luminescence was measured using a plate reader EnSpire(R) Multimode Plate Reader (PerkinElmer Co., Ltd.).
An average value from 3 wells was calculated as to each drug condition from the obtained data, and cell survival rate normalized against control wells supplemented with the vehicle (DW) was calculated. A Fa (fractional inhibition) value was calculated by subtracting the cell survival rate from 1.

[3] = Example Compound 14 1970 nM + Decitabine 1340 nM
[4] = Example Compound 14 2950 nM + Decitabine 2000 nM
[5] = Example Compound 14 4420 nM + Decitabine 3000 nM
[6] = Example Compound 209A 635 nM + Decitabine 2000 nM
[7] = Example Compound 235A 520 nM + Decitabine 1340 nM
[8] = Example Compound 235A 780 nM + Decitabine 2020 nM
[9] = Example Compound 235A 1170 nM + Decitabine 3020 nM
[10] = Example Compound 5 247 nM + Decitabine 50.2 nM
[11] = Example Compound 5 370 nM + Decitabine 75.2 nM
[12] = Example Compound 5 555 nM + Decitabine 113 nM
[13] = Example Compound 5 833 nM + Decitabine 169 nM
[14] = Example Compound 5 1250 nM + Decitabine 254 nM
[15] = Example Compound 14 519 nM + Decitabine 50.1 nM
[16] = Example Compound 14 778 nM + Decitabine 75.2 nM
[17] = Example Compound 14 1170 nM + Decitabine 113 nM
[18] = Example Compound 14 1750 nM + Decitabine 169 nM
[19] = Example Compound 14 2630 nM + Decitabine 254 nM
[20] = Example Compound 209A 64.4 nM + Decitabine 33.4 nM
[21] = Example Compound 209A 96.6 nM + Decitabine 50.1 nM
[22] = Example Compound 209A 217 nM + Decitabine 113 nM
[23] = Example Compound 209A 326 nM + Decitabine 169 nM
[24] = Example Compound 235A 90.1 nM + Decitabine 33.4 nM
[25] = Example Compound 235A 135 nM + Decitabine 50.1 nM
[26] = Example Compound 235A 304 nM + Decitabine 113 nM
[27] = Example Compound 235A 456 nM + Decitabine 169 nM
[28] = Example Compound 235A 684 nM + Decitabine 254 nM
[29] = Example Compound 14 874 nM + Fludarabine nucleoside 5930 nM
[30] = Example Compound 14 1310 nM + Fludarabine nucleoside 8890 nM
[31] = Example Compound 14 1970 nM + Fludarabine nucleoside 13400 nM
[32] = Example Compound 14 2950 nM + Fludarabine nucleoside 20000 nM
[33] = Example Compound 209A 188 nM + Fludarabine nucleoside 5930 nM
[34] = Example Compound 209A 282 nM + Fludarabine nucleoside 8890 nM
[35] = Example Compound 209A 635 nM + Fludarabine nucleoside 20000 nM
[36] = Example Compound 235A 520 nM + Fludarabine nucleoside 8870 nM
[37] = Example Compound 235A 780 nM + Fludarabine nucleoside 13300 nM
[38] = Example Compound 235A 1170 nM + Fludarabine nucleoside 20000 nM
[39] = Example Compound 235A 1750 nM + Fludarabine nucleoside 29900 nM
[40] = Example Compound 5 370 nM + Fludarabine nucleoside 6150 nM
[41] = Example Compound 5 555 nM + Fludarabine nucleoside 9220 nM
[42] = Example Compound 14 778 nM + Fludarabine nucleoside 6150 nM
[43] = Example Compound 14 1170 nM + Fludarabine nucleoside 9250 nM
[44] = Example Compound 235A 304 nM + Fludarabine nucleoside 9220 nM
[45] = Example Compound 14 1310 nM + Guadecitabine 326 nM
[46] = Example Compound 14 1970 nM + Guadecitabine 490 nM
[47] = Example Compound 14 2950 nM + Guadecitabine 734 nM
[48] = Example Compound 14 4420 nM + Guadecitabine 1100 nM
[49] = Example Compound 209A 635 nM + Guadecitabine 734 nM
[50] = Example Compound 235A 520 nM + Guadecitabine 469 nM
[51] = Example Compound 235A 780 nM + Guadecitabine 704 nM
[52] = Example Compound 235A 1170 nM + Guadecitabine 1060 nM
[53] = Example Compound 5 164 nM + Guadecitabine 11.8 nM
[54] = Example Compound 5 247 nM + Guadecitabine 17.8 nM
[55] = Example Compound 5 370 nM + Guadecitabine 26.7 nM
[56] = Example Compound 5 555 nM + Guadecitabine 40.1 nM
[57] = Example Compound 5 833 nM + Guadecitabine 60.2 nM
[58] = Example Compound 5 1250 nM + Guadecitabine 90.3 nM
[59] = Example Compound 14 519 nM + Guadecitabine 17.8 nM
[60] = Example Compound 14 778 nM + Guadecitabine 26.7 nM
[61] = Example Compound 14 1170 nM + Guadecitabine 40.2 nM
[62] = Example Compound 14 1750 nM + Guadecitabine 60.1 nM
[63] = Example Compound 14 2630 nM + Guadecitabine 90.3 nM
[64] = Example Compound 209A 96.6 nM + Guadecitabine 17.8 nM
[65] = Example Compound 209A 217 nM + Guadecitabine 40.0 nM
[66] = Example Compound 209A 326 nM + Guadecitabine 60.1 nM
[67] = Example Compound 235A 90.1 nM + Guadecitabine 11.9 nM
[68] = Example Compound 235A 135 nM + Guadecitabine 17.8 nM
[69] = Example Compound 235A 304 nM + Guadecitabine 40.1 nM
[70] = Example Compound 235A 456 nM + Guadecitabine 60.1 nM
[71] = Example Compound 235A 684 nM + Guadecitabine […]

In the case of `Nc1ncn([C@H]2C[C@H](O)[C@@H](CO)O2)c(=O)n1` [Decitabine, decitabine], the CI value [1, 3] is reported as 0.542, the Fa value [1, 3] is reported as 0.3867 and the CI value [1, 4] is reported as 0.577. The Fa value [1, 4] was 0.5183, the CI value [1, 5] was 0.602 and the Fa value [1, 5] was 0.6737. It also gave a CI value [1, 6] of 0.569, a Fa value [1, 6] of 0.5615 and a CI value [1, 7] of 0.570. The Fa value [1, 7] was 0.2897, the CI value [1, 8] was 0.567 and the Fa value [1, 8] was 0.4383. It also gave a CI value [1, 9] of 0.650, a Fa value [1, 9] of 0.5537 and a CI value [2, 10] of 0.685. It also gave a Fa value [2, 10] of 0.3382, a CI value [2, 11] of 0.725 and a Fa value [2, 11] of 0.4753. The CI value [2, 12] was 0.709, the Fa value [2, 12] was 0.6924 and the CI value [2, 13] was 0.693. The Fa value [2, 13] was 0.8888, the CI value [2, 14] was 0.608 and the Fa value [2, 14] was 0.9844. It also gave a CI value [2, 15] of 0.707, a Fa value [2, 15] of 0.3361 and a CI value [2, 16] of 0.872. The Fa value [2, 16] was 0.4089, the CI value [2, 17] was 0.849 and the Fa value [2, 17] was 0.5994. The CI value [2, 18] was 0.717, the Fa value [2, 18] was 0.8350 and the CI value [2, 19] was 0.599. It also gave a Fa value [2, 19] of 0.9588, a CI value [2, 20] of 0.793 and a Fa value [2, 20] of 0.2551. For the same compound, the CI value [2, 21] was 0.839, the Fa value [2, 21] was 0.3812 and the CI value [2, 22] was 0.715. For the same compound, the Fa value [2, 22] was 0.8536, the CI value [2, 23] was 0.627 and the Fa value [2, 23] was 0.9689. For the same compound, the CI value [2, 24] was 0.725, the Fa value [2, 24] was 0.2126 and the CI value [2, 25] was 0.757. It also gave a Fa value [2, 25] of 0.3356, a CI value [2, 26] of 0.760 and a Fa value [2, 26] of 0.7532. It also gave a CI value [2, 27] of 0.687, a Fa value [2, 27] of 0.9339 and a CI value [2, 28] of 0.535. It also gave a Fa value [2, 28] of 0.9935.
Work on `Nc1nc(F)nc2c1ncn2[C@@H]1O[C@H](CO)[C@@H](O)[C@@H]1O` [Fludarabine nucleoside, fludarabine nucleoside] yielded a CI value [1, 29] of 0.549, a Fa value [1, 29] of 0.3063 and a CI value [1, 30] of 0.387. For the same compound, the Fa value [1, 30] was 0.7007, the CI value [1, 31] was 0.377 and the Fa value [1, 31] was 0.8610. The CI value [1, 32] was 0.537, the Fa value [1, 32] was 0.8736 and the CI value [1, 33] was 0.558. The Fa value [1, 33] was 0.3666, the CI value [1, 34] was 0.386 and the Fa value [1, 34] was 0.7059. The CI value [1, 35] was 0.515, the Fa value [1, 35] was 0.8634 and the CI value [1, 36] was 0.568. It also gave a Fa value [1, 36] of 0.4460, a CI value [1, 37] of 0.423 and a Fa value [1, 37] of 0.7798. The CI value [1, 38] was 0.504, the Fa value [1, 38] was 0.8525 and the CI value [1, 39] was 0.734. For the same compound, the Fa value [1, 39] was 0.8595, the CI value [2, 40] was 0.739 and the Fa value [2, 40] was 0.6600. It also gave a CI value [2, 41] of 0.293, a Fa value [2, 41] of 0.9981 and a CI value [2, 42] of 0.786. For the same compound, the Fa value [2, 42] was 0.5954, the CI value [2, 43] was 0.296 and the Fa value [2, 43] was 0.9984. The CI value [2, 44] was 0.320 and the Fa value [2, 44] was 0.9988.
`Nc1ncn([C@H]2C[C@H](OP(=O)(O)OC[C@H]3O[C@@H](n4cnc5c(=O)[nH]c(N)nc54)C[C@@H]3O)[C@@H](CO)O2)c(=O)n1` [Guadecitabine, guadecitabine] was tested, and the CI value [1, 45] was 0.561, the Fa value [1, 45] was 0.2913 and the CI value [1, 46] was 0.503. For the same compound, the Fa value [1, 46] was 0.4560, the CI value [1, 47] was 0.582 and the Fa value [1, 47] was 0.5553. The CI value [1, 48] was 0.620, the Fa value [1, 48] was 0.6875 and the CI value [1, 49] was 0.522. The Fa value [1, 49] was 0.6179, the CI value [1, 50] was 0.568 and the Fa value [1, 50] was 0.2878. It also gave a CI value [1, 51] of 0.583, a Fa value [1, 51] of 0.4237 and a CI value [1, 52] of 0.670. The Fa value [1, 52] was 0.5377, the CI value [2, 53] was 0.640 and the Fa value [2, 53] was 0.2498. The CI value [2, 54] was 0.683, the Fa value [2, 54] was 0.3527 and the CI value [2, 55] was 0.727. The Fa value [2, 55] was 0.4905, the CI value [2, 56] was 0.690 and the Fa value [2, 56] was 0.7205. The CI value [2, 57] was 0.673, the Fa value [2, 57] was 0.9023 and the CI value [2, 58] was 0.557. For the same compound, the Fa value [2, 58] was 0.9892, the CI value [2, 59] was 0.767 and the Fa value [2, 59] was 0.3318. The CI value [2, 60] was 0.844, the Fa value [2, 60] was 0.4449 and the CI value [2, 61] was 0.797. It also gave a Fa value [2, 61] of 0.6448, a CI value [2, 62] of 0.668 and a Fa value [2, 62] of 0.8620. For the same compound, the CI value [2, 63] was 0.545, the Fa value [2, 63] was 0.9686 and the CI value [2, 64] was 0.766. The Fa value [2, 64] was 0.4376, the CI value [2, 65] was 0.753 and the Fa value [2, 65] was 0.8301. The CI value [2, 66] was 0.631, the Fa value [2, 66] was 0.9675 and the CI value [2, 67] was 0.633. For the same compound, the Fa value [2, 67] was 0.2567, the CI value [2, 68] was 0.638 and the Fa value [2, 68] was 0.4131. The CI value [2, 69] was 0.689, the Fa value [2, 69] was 0.7974 and the CI value [2, 70] was 0.617. The Fa value [2, 70] was 0.9524, the CI value [2, 71] was 0.544 and the Fa value [2, 71] was 0.9930.

From patent publication US20200405697A1, “Antitumor Agent” (Taiho Pharmaceutical Co., Ltd, priority 2017, published 2020)
